Results reported in patent US20220218614A1, “IONIZABLE CATIONIC LIPIDS AND LIPID NANOPARTICLES, AND METHODS OF SYNTHESIS AND USE THEREOF” (Tidal Therapeutics, Inc., priority 2020, published 2022).
Several values for one entry are separate records, joined by “and”; a condition that tells them apart may be missing. Equal values may be shown once. Entries after “also recorded” stand apart in the source; their conditions may differ.

Tests used:
[1] = Quant-iT RiboGreen RNA assay: dye accessible and total (Triton) mRNA content, encapsulation; format: physicochemical
Method: RNA content of the nanoparticles is measured using Thermo Fisher Quant-iT RiboGreen RNA Assay Kit. Dye accessible RNA, which includes both non-incorporated RNA and RNA that is near the surface of the nanoparticle, is measured by diluting the nanoparticles to approximately 1 μg/mL mRNA using HEPES buffered saline, and then adding Quant-iT reagent to the mixture. Total RNA content is measured by diluting the particles to 1 μg/mL mRNA using HEPES buffered saline, disrupting the nanoparticles by heating them to 60° C. for 30 minutes in HEPES buffered saline containing 0.5% Triton, and then adding Quant-It reagent. RNA is quantified by measuring fluorescence at 485/535 nm, and concentration is determined relative to a contemporaneously run RNA standard curve.

[2] = tested on: primary human T-cells (CD3+ T cells); test: In vitro LNP transfection of primary human T-cells (GFP, Cy5 or DiI, viability by FACS); format: cell-based; details: for GFP protein expression (% GFP+ cells, GFP MFI), in words: hSP34 targeted LNP with GFP mRNA; for GFP protein expression (% GFP+ cells, GFP MFI), in words / T-cell viability / tolerability, in words / LNP association with cells (% Cy5+/Cy5 MFI or % DiI+/DiI MFI), in words: 24 hours; for T-cell viability / tolerability, in words / LNP association with cells (% Cy5+/Cy5 MFI or % DiI+/DiI MFI), in words: hSP34 targeted LNP; for T-cell viability / tolerability, in words: dose as in the value; for T-cell viability (% live): PBS control about 50%
Source text: This example describes the protocol used for in vitro LNP transfections in primary human T-cells. This method is used to assess LNP in vitro efficacy in relevant target cells (CD3+ T cells) by first transfecting the cells using LNPs loaded with mRNA encoding for a reporter gene, such as GFP mRNA, and then assessing transfection by measuring reporter gene expression by fluorescence-[…] cell sorting (FACS). Additionally, particle association with cells may be observed by in the same assay by labeling individual nanoparticle components, such as the mRNA, with a fluorescent dye, such as Cy5, and then observing cell/dye association by FACS.
CD3+ T cells were isolated from frozen peripheral blood mononuclear cells using an EasySep Human T Cell Isolation Kit on a RoboSep automated cell isolation system from […]. T cells were plated into a flat bottom 96-well plate in RPMI cell culture media supplemented with glutamax, 10% fetal bovine serum, and 40 ng/mL IL2. 100 μL of cell suspension was seeded per well at a density of 1M T cells/mL (100K T cells/well). Cells were allowed to rest for two hours in a 37° C. incubator, and then were transfected by gently adding 10 μL of a 22 μg/mL (by mRNA) nanoparticle suspension, resulting in a final mRNA concentration of 2 μg/mL. Cells were gently mixed with a pipette and then incubated for 24 hours in a 37° C. incubator. After incubation the cells were analyzed using an ThermoFisher Attune NXT flow cytometer. Cy5 was detected using a 638 nm laser with 670/14 nm filter. eGFP was detected using a 488 nm laser and a 530/30 nm filter. Data were analyzed using FlowJo software from BD biosciences. FACS data were first gated to exclude doublets and dead cells and then gated for GFP and Cy5. Gates for GFP+ and Cy5+were set such that a control sample (PBS treated T cells) was <0.1% positive.
CD3+ T cells were isolated from frozen peripheral blood mononuclear cells using an EasySep Human T Cell Isolation Kit on a RoboSep automated cell isolation system from […]. T cells were plated into a round bottom 96-well plate in RPMI cell culture media supplemented with glutamax, 10% fetal bovine serum, pen-strep, and 40 ng/mL IL-2. 100 μL of cell suspension was seeded per well at a density of 1M T cells/mL (100K T cells/well). Cells were allowed to rest for two hours in a 37° C. incubator, and then were transfected by gently adding 10 μL of a 22 μg/mL (by mRNA) nanoparticle suspension, resulting in a final mRNA concentration of 2 μg/mL (unless otherwise noted). Cells were gently mixed with a pipette and then incubated for 24 hours in a 37° C. incubator. After incubation the cells were diluted with FACS buffer (BD 554657) and analyzed using a BD Fortessa flow cytometer. Data were analyzed using FlowJo software from BD biosciences.

[3] = Apparent pKa of LNPs by TNS fluorescent probe; format: physicochemical; details: LNP made with the named ionizable lipid; pH at 50% of maximum TNS fluorescence
Source text: This example describes the fluorescent dye based method used for measurement of the apparent pKa of the lipid nanoparticles. Apparent pKa determines the nanoparticle surface charge under physiological pH conditions, typically a pKa value in the endosomal pH range (6-7.4) results in LNPs that are neutral or slightly charged at plasma or the extracellular space (pH 7.4) and become strongly positive under acidic endosomal environments. This positive surface charge drives fusion of the LNP surface with negatively charged endosomal membranes resulting in destabilization and rupture of the endosomal compartment and LNP escape into the cytosolic compartment, a critical step in cytosolic delivery of mRNA and protein expression via engagement of the cells ribosomal machinery.
The apparent pKa of LNPs made using ionizable Lipids 2, 5 (synthesized as described in example 1), 6 and 7 (synthesized using method analogous to Lipid 2, 5, respectively, except using diethyl amine instead of dimethyl amine to incorporate the tertiary amine head group) were determined by 6-(p-Toluidino)-2-naphthalenesulfonic acid (TNS) fluorescence measurement in aqueous buffers covering a range of pH values (pH 4-pH 10). TNS is non-fluorescent when free in solution, but which fluoresces strongly when associated with a positively charged lipid nanoparticle. At a pH values below the pKa of the nanoparticle, positive LNP surface charge results in dye recruitment at the particle interface resulting in TNS fluorescence. At pH values above the LNP pKa no fluorescence is observed. The apparent pKa of the LNP is reported as the pH at which the fluorescence is at 50% of its maximum, as determined using a four-point logistic curve fit.

[4] = Hydrodynamic diameter and polydispersity of LNPs by dynamic light scattering (DLS), Zetasizer; format: physicochemical
Method: (§1) Samples of the LNPs produced in Example 2 were characterized to determine the average hydrodynamic diameter, zeta potential, and mRNA content (total and dye-accessible). The hydrodynamic diameter was determined by dynamic light scattering (DLS) using a Zetasizer model ZEN3600 (Malvern Pananalytical, UK). The zeta potential was measured in 5 mM pH 5.5 MES buffer and 5 mM pH 7.4 HEPES buffer by laser Doppler electrophoresis using the Zetasizer.

[5] = Zeta potential of LNPs by laser Doppler electrophoresis in 5 mM pH 5.5 MES and 5 mM pH 7.4 HEPES buffer; format: physicochemical; details: pH 5.5 MES and pH 7.4 HEPES buffer
Method: as §1

[6] = Table 25: Lipid 8 and Lipid 5 LNP, theoretical total mRNA 45 ug/mL
[7] = Table 10: Lipid 5 and Lipid 7 LNP, theoretical total mRNA 50 μg/mL
[8] = Table 11A: Lipid 5, Lipid 8 and DLn-MC3-DMA LNP, vortexer mixing, theoretical total mRNA 42.5 ug/mL
[9] = Table 11A: vortexer mixing, theoretical total mRNA 42.5 ug/mL

## CCCCC/C=C\C/C=C\CCCCCCCC(=O)OC[C@H](CCN(C)C)OC(=O)CCCCCCC/C=C\C/C=C\CCCCC [Lipid 5 (N)]
[1]; [6]
  Measured total (Triton method) mRNA: 36 µg/mL
  Ribogreen Dye Accessible mRNA: 7 µg/mL

## CCCCC/C=C\C/C=C\CCCCCCCC(=O)OC[C@H](COC(=O)CCN(C)CCO)OC(=O)CCCCCCC/C=C\C/C=C\CCCCC [Lipid 12]
[2]
  GFP protein expression (% GFP+ cells, GFP MFI), in words: performed poorly
  T-cell viability / tolerability, in words: well tolerated by T-cells at all LNP doses tested

## CCCCC/C=C\C/C=C\CCCCCCCC(=O)OCC(CCN(CC)CC)OC(=O)CCCCCCC/C=C\C/C=C\CCCCC (stereo not shown) [Lipid 7]
[2]
  GFP protein expression (% GFP+ cells, GFP MFI), in words: Dose dependent expression of GFP protein; also recorded: significantly lower level of GFP protein expression relative to Lipid 5 LNP formulation
  LNP association with cells (% Cy5+/Cy5 MFI or % DiI+/DiI MFI), in words: equally associated with cells
  T-cell viability / tolerability, in words: well tolerated by T-cells at and below 0.5 μg/mL dose
[3]
  apparent pKa of LNP (TNS): ~6.3 and ~6.4
[1]; Table 10: Lipid 5 and Lipid 7 LNP
  % Dye Accessible mRNA: 14%
[1]; [7]
  Measured total (Triton method) mRNA: 43 µg/mL
  Ribogreen Dye Accessible mRNA: 6 µg/mL

## CCCCC/C=C\C/C=C\CCCCCCCCC(CCCCCCCC/C=C\C/C=C\CCCCC)OC(=O)CCCN(C)C [DLn-MC3-DMA, DLin-MC3-DMA, reference compound]
[4]
  polydispersity after antibody conjugate insertion: 0.2
[2]
  GFP protein expression (% GFP+ cells, GFP MFI), in words: failed to express GFP protein
  T-cell viability / tolerability, in words: better tolerated at higher doses
[5]
  LNP surface charge (zeta potential), in words: positive zeta potential at pH 5.5, and either near neutral or slightly negative charge at pH 7.4
[1]; [8]
  Measured total (Triton method) mRNA: 33 µg/mL
[1]; [9]
  Ribogreen Dye Accessible mRNA: 2 µg/mL

## CCCCC/C=C\C/C=C\CCCCCCCC(=O)OC[C@H](COC(=O)CCN(CCO)CCO)OC(=O)CCCCCCC/C=C\C/C=C\CCCCC [Lipid 13]
[2]
  GFP protein expression (% GFP+ cells, GFP MFI), in words: performed poorly
  T-cell viability / tolerability, in words: well tolerated by T-cells at all LNP doses tested

## CCCCC/C=C\C/C=C\CCCCCCCC(=O)OC[C@H](COC(=O)CCCN(C)C)OC(=O)CCCCCCC/C=C\C/C=C\CCCCC [Lipid 2]
[2]
  T-cell viability / tolerability, in words: well tolerated by T-cells at all LNP doses tested
[3]
  apparent pKa of LNP (TNS): 7.5

## CCCCC/C=C\C/C=C\CCCCCCCC(=O)OC[C@H](CCN(C)C)OC(=O)CCCCCCC/C=C\C/C=C\CCCCC [Lipid 5 (O)]
[1]; [6]
  Measured total (Triton method) mRNA: 38 µg/mL
  Ribogreen Dye Accessible mRNA: 7 µg/mL

## CCCCC/C=C\C/C=C\CCCCCCCCC1(CCCCCCCC/C=C\C/C=C\CCCCC)OCC(CCN(C)C)O1 (stereo not shown) [Lipid 8, reference compound]
[4]
  polydispersity after antibody conjugate insertion: 0.2
[2]; 0.125 ug mRNA/mL per well
  T-cell viability (% live): about 45%
[2]; 2 ug mRNA/mL per well
  T-cell viability (% live): about 25%
[2]
  GFP protein expression (% GFP+ cells, GFP MFI), in words: Dose dependent expression of GFP protein
  LNP association with cells (% Cy5+/Cy5 MFI or % DiI+/DiI MFI), in words: equally associated with cells
  T-cell viability / tolerability, in words: slightly lower viability at higher dose of 2 μg/mL; also recorded: dose dependent toxicity towards T-cells; also recorded: well tolerated by T-cells at and below 1.0 μg/mL dose
[5]
  LNP surface charge (zeta potential), in words: positive zeta potential at pH 5.5, and either near neutral or slightly negative charge at pH 7.4
[1]; [8]
  Measured total (Triton method) mRNA: 30 µg/mL
[1]; [9]
  Ribogreen Dye Accessible mRNA: 3 µg/mL
[1]; [6]
  Measured total (Triton method) mRNA: 40 µg/mL
  Ribogreen Dye Accessible mRNA: 4 µg/mL
